Assay results taken from patent US20050165006A1, “Quinoline derivatives, their preparation and pharmaceutical compositions comprising the same” (priority 2002, published 2005).
Read-outs that look alike come from different tables or passages of the source.

Tests used:
[1] = target: SERT (Homo sapiens, UniProt P31645); conditions: known values, background art; read-out: binding affinity (Ki) to SERT; cited from earlier work
[2] = target: serotonin transporter (SERT) (Rattus norvegicus, UniProt P31652); test: Radioligand binding assay with [3H]citalopram on synaptic membrane; conditions: for affinity (Ki value) compared with Fluoxetine: comparison in words on Table 3; for activity / binding affinity relative to 6-nitro-2-piperazin-1-yl-quinoline: ratio of Ki values of Table 3
Chain of serotonin transporter (SERT) (P31652 whole entry): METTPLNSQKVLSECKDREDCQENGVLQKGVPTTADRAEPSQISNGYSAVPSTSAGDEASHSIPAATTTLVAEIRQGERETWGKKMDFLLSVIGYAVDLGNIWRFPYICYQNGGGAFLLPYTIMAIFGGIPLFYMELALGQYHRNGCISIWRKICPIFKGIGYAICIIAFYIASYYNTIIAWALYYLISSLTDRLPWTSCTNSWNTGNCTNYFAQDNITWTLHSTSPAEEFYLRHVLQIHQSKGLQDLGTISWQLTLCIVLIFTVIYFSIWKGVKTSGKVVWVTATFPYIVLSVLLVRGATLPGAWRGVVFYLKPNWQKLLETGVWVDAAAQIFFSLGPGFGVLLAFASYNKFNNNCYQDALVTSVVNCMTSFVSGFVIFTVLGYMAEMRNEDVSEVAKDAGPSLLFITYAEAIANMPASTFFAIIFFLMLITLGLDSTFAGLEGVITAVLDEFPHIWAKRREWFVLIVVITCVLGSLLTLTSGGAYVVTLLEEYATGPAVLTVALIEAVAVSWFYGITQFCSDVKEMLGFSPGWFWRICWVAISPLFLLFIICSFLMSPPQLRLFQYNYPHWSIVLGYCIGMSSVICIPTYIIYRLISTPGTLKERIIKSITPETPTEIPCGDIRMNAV
Method: After male SD Rats (250˜350 g) were decapitate by using quillotine, the whole brains were removed. The cerebral cortex were carefully cut to slices and weighed. 0.32 M sucrose which is 10 times of sucrose was added to the slices, and then homogenized twice for 15 seconds using Polytron. After being centrifuged at 4° C. for 10 minutes in 1,000×g, the thus obtained supernatant was re-centrifuged at 20,000×g for 20 minutes and then discarded. The precipitate was isolated, re-suspended in deionized water, was provided with osmotic shock for 10 minutes, and then centrifuged at 80,000×g for 20 minutes. The thus obtained precipitate was suspended in 50 ml of triacetate buffer, re-centrifuged at 48,000×g, and then transferred to a refrigerator. On the day of assay, the cells were thawed on ice, washed by centrifugation (48,000×g, 20 minutes).
The mixture was shaken at 25° C. for 60 minutes, incubated, filtered using a Brandel Cell Harvester through a GF/B Watman filter presoaked in 0.05 polyethylimine. The filters were then washed twice with 5 ml of ice-cold buffer, dried, added with 7 ml of ultima gold scintillation cocktail, and then shaken for 3˜4 hours.

[3] = Acute toxicity in rats; format: in vivo; conditions: SD, rat, in vivo
Method: (§1) 6-week old SPF SD line rats were used in the tests for acute toxicity. 6-chloro-2-piperazin-1-yl-quinoline or 4-chloro-6-nitro-2-piperazin-1-yl-quinoline were suspended in 1 ml saline buffer solution and […] administered to anterior tibialis once to 6 rats per group at the dosage of 500 mg/kg. Death, clinical symptoms, and weight change in rats were observed, hematological tests and biochemical tests of blood performed, and any abnormal signs in the gastrointestinal organs of chest and abdomen checked with eyes during autopsy. […]

[4] = tested on: SPF SD line rats; test: Acute toxicity in rats; format: in vivo
Method: as §1

[5] = tested on: depression-induced mice; test: Assay for anti-depression activity using a forced swimming test; format: in vivo; conditions: orally administered, 50 mg/kg (FIG. 1), p<0.003
Method: After 4-chloro-6-nitro-2-piperazin-1-yl-quinoline was dissolved in dimethylsulfoxide in a variety of concentrations and injected to depression-induced mice, the time of immobility was measured. The immobility time may be evaluated by measuring the effect against anti-depression. Because immobility means a helplessness of the mice, in this case, slow immobility should be understood to reduce depression.
4-chloro-6-nitro-2-piperazin-1-yl-quinoline was orally administered after 23 hours from the first treatment, subsequently, after 24 hours, the animals were placed in the cage to carry out the second treatment and the immobility time was measured for 5 minutes. The immobility caused by the second treatment was recorded while watching video tape. In order to make an objective observation, we made an average of the results of make than 3 people.

[6] = tested on: ICR mice; test: Assay for anti-depression activity using a tail suspension test; format: in vivo; conditions: for anti-depression effect higher than that of control (immobility time): ICR mice, oral
Method: The inventors carried out the tail suspension test to evaluate an anti-depression activity of the present compound. ICR mice were divided into 5 groups made up of 8 subjects, and orally dosed with 4-chloro-6-nitro-2-piperazin-1-yl-quinoline dissolved in saline buffer solution in a variety of its concentration 60 minutes prior to the beginning of the experiment. The evaluation of the activity was estimated using administering group, negative, and positive group. After suspending the animal by the tail induced the immobility, the immobility time was measured 6 minutes watching a recorded tape for video. The final data was obtained an average value measured by 3 persons to accurate the data.

[7] = 1 nM [3H]citalopram, rat cerebral cortex synaptic membrane, 25° C., 60 minutes

Chain of SERT (P31645 whole entry, species assumed): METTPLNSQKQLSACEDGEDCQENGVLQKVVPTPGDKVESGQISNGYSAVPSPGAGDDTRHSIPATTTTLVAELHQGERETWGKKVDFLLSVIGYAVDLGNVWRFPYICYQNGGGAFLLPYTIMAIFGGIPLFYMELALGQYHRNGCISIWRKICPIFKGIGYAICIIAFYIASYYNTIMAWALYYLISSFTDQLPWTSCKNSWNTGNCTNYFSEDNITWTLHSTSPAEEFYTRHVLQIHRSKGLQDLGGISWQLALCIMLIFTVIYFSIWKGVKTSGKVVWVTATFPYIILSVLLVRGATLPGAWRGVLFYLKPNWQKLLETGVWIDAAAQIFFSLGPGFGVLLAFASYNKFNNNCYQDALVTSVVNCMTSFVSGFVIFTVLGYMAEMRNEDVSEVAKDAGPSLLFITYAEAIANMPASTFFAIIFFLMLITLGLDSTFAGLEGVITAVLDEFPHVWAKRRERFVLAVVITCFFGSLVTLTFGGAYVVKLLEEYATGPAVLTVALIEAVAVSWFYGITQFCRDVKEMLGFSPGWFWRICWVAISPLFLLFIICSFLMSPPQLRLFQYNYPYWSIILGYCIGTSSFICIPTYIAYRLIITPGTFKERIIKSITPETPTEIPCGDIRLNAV

SMILES | Ki [2, 7] [nM] | Ki [2] [nM] | other results
O=[N+]([O-])c1ccc2nc(N3CCNCC3)ccc2c1 [6-nitro-2-piperazin-1-yl-quinoline, 6-nitro-2-(piperazin-1-yl)quinoline, reference compound] | 0.17 ± 0.03 |  | Ki [1]: 0.018 nM
Cc1cc2cc([N+](=O)[O-])ccc2nc1N1CCNCC1 [Example 1, 3-methyl-6-nitro-2-(piperazin-1-yl)quinoline] |  | 8.45 ± 0.62 | 
CCc1cc2cc([N+](=O)[O-])ccc2nc1N1CCNCC1 [Example 2, 3-ethyl-6-nitro-2-(piperazin-1-yl)quinoline] |  | 0.36 ± 0.02 | affinity (Ki value) compared with Fluoxetine [2]: exceed that of Fluoxetine
CCCc1cc2cc([N+](=O)[O-])ccc2nc1N1CCNCC1 [Example 3, 6-nitro-2-(piperazin-1-yl)-3-propylquinoline] |  | 0.26 ± 0.01 | affinity (Ki value) compared with Fluoxetine [2]: exceed that of Fluoxetine
O=[N+]([O-])c1ccc2nc(N3CCNCC3)c(CCCCl)cc2c1 [Example 4, 3-(3-chloropropyl)-6-nitro-2-piperazin-1-yl-quinoline] |  | 1.08 ± 0.17 | 
O=[N+]([O-])c1ccc2nc(N3CCNCC3)c(CCCF)cc2c1 [Example 5, 3-(3-fluoropropyl)-6-nitro-2-piperazin-1-yl-quinoline] | 0.32 ± 0.01 |  | affinity (Ki value) compared with Fluoxetine [2]: exceed that of Fluoxetine
Ic1ccc2nc(N3CCNCC3)ccc2c1 [Example 6, 6-iodo-2-piperazin-1-yl-quinoline] | 6.6 ± 0.52 |  | 
Brc1ccc2nc(N3CCNCC3)ccc2c1 [Example 7, 6-bromo-2-piperazin-1-yl-quinoline] | 0.91 ± 0.07 |  | 
Clc1ccc2nc(N3CCNCC3)ccc2c1 [Example 8, 6-chloro-2-piperazin-1-yl-quinoline] | 1.68 ± 0.13 |  | LD50 ([3]; rats, single administration of 500 mg/kg, read-out: estimated LD50): > 500 mg/kg; acute toxicity observations (death, clinical symptoms, weight change) ([4]; rats, single administration of 500 mg/kg, 6 rats per group): did not cause any specific clinical symptoms, weight change, or death
O=[N+]([O-])c1ccc2nc(N3CCNCC3)c(Br)cc2c1 [Example 9, 3-bromo-6-nitro-2-(piperazin-1-yl)quinoline] | 12.6 ± 1.14 |  | 
O=[N+]([O-])c1ccc2nc(N3CCNCC3)cc(Cl)c2c1 [Example 10, 4-chloro-6-nitro-2-(piperazin-1-yl)quinoline] |  | 0.017 | anti-depression effect higher than that of the control (immobility time) [5]: 30%; effect higher than that of the control (immobility time) ([6]; FIG. 2B, 1 mg/kg or 10 mg/kg, anova p<0.005): about 65%; anti-depression effect higher than that of control (immobility time) ([6]; 5 mg/kg): 56%; anti-depression effect higher than that of control (immobility time) ([6]; 50 mg/kg): 60%; ED50 ([6]; Mus musculus, expected from evenness of effect from 1 to 50 mg/kg): < 1 mg/kg; LD50 ([3]; 500 mg/kg): > 500 mg/kg; acute toxicity observations (death, clinical symptoms, weight change) ([4]; rat, in vivo, 500 mg/kg): did not cause any specific clinical symptoms, weight change, or death; activity / binding affinity relative to 6-nitro-2-piperazin-1-yl-quinoline [2]: 10 times; activity / binding affinity relative to 6-nitro-2-piperazin-1-yl-quinoline ([2]; listed as 4-chloro-6-nitro-2-piperazin-1-yl-quinoline): over ten times
C=Cc1cc(N2CCNCC2)nc2ccc([N+](=O)[O-])cc12 [Example 13, 6-nitro-2-(piperazin-1-yl)-4-vinylquinoline] |  | 1.42 | 
O=[N+]([O-])c1ccc2nc(N3CCNCC3)cc(-c3ccco3)c2c1 [Example 14, 4-(2-furanyl)-6-nitro-2-(piperazin-1-yl)quinoline] |  | 6.4 | 
CC1CN(c2ccc3cc([N+](=O)[O-])ccc3n2)CCN1 (stereo not shown) [Example 15, 2-(3-methylpiperazin-1-yl)-6-nitroquinoline] | 22.2 ± 1.7 |  | 
CNCCN(C)c1ccc2cc([N+](=O)[O-])ccc2n1 [Example 16, 2-(N-methyl-N-(2-N′-methylamino)ethyl)amino-6-nitroquinoline] | 8.43 ± 0.45 |  | 
O=[N+]([O-])c1ccc2nc(N3CCCNCC3)ccc2c1 [Example 17, 2-[1,4]diazepin-1-yl-6-nitroquinoline] | 1.9 ± 0.15 |  | 
